Patent US9187458B2, “Cyanoquinoline derivatives” (Tianjin Hemay Bio-Tech Co., LTD., priority 2010, dated 2015)

Key:
Sk-Br-3 cells = test: Sk-Br-3 Cell Growth Inhibition Test (SRB Assay); assay type: cell-based; details: Homo sapiens, 91 h incubation
Experimental: Sk-Br-3 Cell Growth Inhibition Test (SRB Assay)
1. Cell strains: Sk-Br-3 (human breast cancer cell strains);
2. SRB: available from Sigmaaldrich, goods number: S9012, lot number: 047K3751. SRB was reserved at the room temperature. 0.4% (w/v) of working solution was formulated with 1% of glacial acetic acid. The solution was reserved at 4° C.; anti-tumor compounds; DMSO
Culture medium: 90% DMEM+10% FBS;
(§1) 1. A plate (10 cm) of cells in logarithmic growth phase normally cultured was collected. The culture solution was sucked out. The plate was washed with 5 mL of PBS 1-2 times;
2. PBS was sucked out. […] of 0.25% pancreatin was added to infiltrate the cells for 30 s;
3. The pancreatin was sucked out. The culture plate was placed in an incubator. Digestion was carried out for about 1.5-2 min at 37° C.;
4. 4 mL of complete culture solution was added to the culture plate to stop the digestion. The cells were carefully scoured with micropipette (1 ml) to give a uniform single cell suspension;
5. Cell suspension was counted. The suspension was diluted to 1×10^5/ml. The resulting suspension was developed uniformly on a plate by 10000 cells/100 μl per well. The culture plate was incubated overnight under 5% CO2 at 37° C. In day 2, 100 μl of culture solution comprising a compound was added in each well, and further incubated for 91 h under 5% CO2 at 37° C.
(§2) 6. The culture solution was sucked out. 100 uL of TCA fixed cells which were diluted to 10% were added to each well. The plate was kept in a refrigerator for 1 h at 4° C.
(§3) 7. TCA stationary liquid was sucked out. Each well was washed with 150 μL of ddH2O five times;
(§4) 8. After the stationary liquid was cleansed, the plate was dried in the air at the room temperature;
(§5) 9. 60 μL of SRB staining solution was added in each well. The well was stained for 15 min at the room temperature;
(§6) 10. The SRB staining solution was sucked out. Each well was washed with 150 μL of 1% glacial acetic acid five times;
(§7) 11. After the SRB staining solution was cleansed, the plate was dried in the air at the room temperature;
(§8) 12. 100 μL of 10 mM Tris was added in each well. The plate was vibrated to dissolve out SRB;
(§9) 13. OD values were determined at 570 nM.
To: OD values of the starting content of cells when the cells were developed on a plate;
PC: OD values of cells after normal growth in control wells without a compound;
Ti: OD values of cells after growth in test wells with a compound;
NC: Background OD values of blank well without a compound and cells
Therefore: Ratio of cells in test wells to normal wells (% of control cell growth)=(Ti−To)/(PC−To)×100%
Ratio GI50 was concentration of a compound at the point of 50%.
Therefore: Ratio of killed cells to inoculated cells (% of killed cells)=(Ti−To)/(To−NC)×100%
LC50 was concentration point of a compound when half of the starting inoculated concentration was reached.
Concentration of a compound at this point is defined as TGI (total growth inhibition).

LoVo cells = test: LoVo Cell Growth Inhibition Test (MTT Assay); assay type: cell-based; details: Homo sapiens, 72 h incubation
Experimental: LoVo Cell Growth Inhibition Test (MTT Assay)
1. Cell strains: LoVo (human intestinal cancer cell strains);
(§10) 1. A plate (10 cm) of cells in logarithmic growth phase normally cultured was collected;
(§11) 2. The culture solution was sucked out. The plate was washed with 5 ml of PBS 1-2 times;
(§12) 3. PBS was sucked out. 2 ml of 0.25% pancreatin was added to infiltrate the cells for 1 min;
4. The pancreatin was sucked out. The culture plate was placed in an incubator. Digestion was carried out for about 4 min at 37° C.;
5. 4 ml of complete culture solution was added in the culture plate to stop the digestion. The cells were carefully scoured with micropipette (1 ml) to give a uniform cell suspension. The suspension was implanted into a 96-well cell culture plate by 3000-4000 cells/100 μl per well. The culture plate was incubated overnight under 5% CO2 at 37° C. In day 2, 100 μl of culture solution comprising a compound was added into each well, and further incubated for 72 h under 5% CO2 at 37° C.
(§13) 6. The culture solution was sucked out;
(§14) 7. 100 μl of serum-free culture solution containing 0.5 mg/ml MTT was added in each well, and incubated for 4 h;
(§15) 8. The culture solution was carefully sucked out;
(§16) 9. 100 μl of DMSO was added in each well and vibrated to dissolve;
(§17) 10. OD values were determined at 490 nM.
(§18) 1. Calculation of Relative Inhibition Ratio The inhibition ratio of a compound on cell growth=(PC−n)/(PC−NC)×100%
(§19) IC50: Concentration of a compound where inhibition ratio was 50%. IC50 values were fitted with Origin7.5.

AsPC-1 cells = test: AsPC-1 Cell Growth Inhibition Test (MTT Assay); assay type: cell-based; details: Homo sapiens, ASPC1, 72 h incubation
Experimental: AsPC-1 Cell Growth Inhibition Test (MTT Assay)
Cell strains: AsPC-1 (human pancreatic cancer cell strains);
as §10, §11
(§20) 3. PBS was sucked out. 1.5 ml of 0.25% pancreatin was added to infiltrate the cells for 1 min;
4. The pancreatin was sucked out. The culture plate was placed in an incubator. Digestion was carried out for about 7.5 min at 37° C.;
5. 4.5 ml of complete culture solution was added to the culture plate to stop the digestion. The cells were carefully scoured with micropipette (1 ml) to give a uniform cell suspension. The suspension was implanted into a 96-well cell culture plate by 8000 cells/100 μl per well. The culture plate was incubated overnight under 5% CO2 at 37° C. In day 2, 100 μl of culture solution comprising a compound was added in each well, and further incubated for 72 h under 5% CO2 at 37° C.
as §13
(§21) 7. 100 μl of serum-free culture solution containing 0.5 mg/ml MTT was added in each well, and incubated for 3 h;
as §15
(§22) 9. 100 μl of DMSO was added in each welland vibrated to dissolve;
as §17, §18, §19

NCI-H460 cells = test: NCI-H460 Cell Growth Inhibition Test (MTT Assay); assay type: cell-based; details: Homo sapiens, 72 h incubation
Experimental: NCI-H460 Cell Growth Inhibition Test (MTT Assay)
1. Cell strains: NCI-H460 (human large cell lung cancer cell strains);
as §10, §11, §12
(§23) 4. The pancreatin was sucked out. The culture plate was placed in an incubator. Digestion was carried out for about 2 min at 37° C.;
(§24) 5. 4 ml of complete culture solution was added to the culture plate to stop the digestion. The cells were carefully scoured with micropipette (1 ml) to give a uniform cell suspension. The suspension was implanted into a 96-well cell culture plate by 2500 cells/100 μl per well. The culture plate was incubated overnight under 5% CO2 at 37° C. In day 2, 100 μl of culture solution comprising a compound was added in each well, and further incubated for 72 h under 5% CO2 at 37° C.
as §13, §21, §15, §16, §17, §18, §19

A549 cells = test: A549 Cell Growth Inhibition Test (MTT Assay); assay type: cell-based; details: Homo sapiens, 72 h incubation
Experimental: A549 Cell Growth Inhibition Test (MTT Assay)
1. Cell strains: […] (human lung caner cell strains);
Culture medium: 90% F12K+10% FBS;
as §10
2. The culture solution was sucked out. Tthe plate was washed with 5 ml of PBS 1-2 times;
as §12, §23, §24, §13, §21, §15, §16, §17, §18, §19

NCI-N87 cells = test: NCI-N87 Cell Growth Inhibition Test (MTT Assay); assay type: cell-based; details: Homo sapiens, 72 h incubation
Experimental: NCI-N87 Cell Growth Inhibition Test (MTT Assay)
1. Cell strains: NCI-N87 (human gastric carcinoma cell strains);
as §10
2. The culture solution was sucked out. The plate was washed wtih 5 ml of PBS 1-2 times;
as §20
4. The pancreatin was sucked out. The culture plate was placed in an incubator. Digestion was carried out for about 12 min at 37° C.;
5. 4.5 ml of complete culture solution was added to the culture plate to stop the digestion. The cells were carefully scoured with micropipette (1 ml) to give a uniform cell suspension. The suspension was implanted into a 96-well cell culture disc by 17000 cells/100 μl per well. The culture plate was incubated overnight under 5% CO2 at 37° C. In day 2, 100 μl of culture solution comprising a compound was added in each well, and further incubated for 72 h under 5% CO2 at 37° C.
as §13, §21, §15, §22, §17
1. Calculation of Rrelative Inhibition Ratio The inhibition ratio of a compound on cell growth=(PC−n)/(PC−NC)×100%
as §19

BT-474 cells = test: BT-474 Cell Growth Inhibition Test (SRB Assay); assay type: cell-based, human; details: Homo sapiens, 70 h incubation
Experimental: BT-474 Cell Growth Inhibition Test (SRB Assay)
1. Cell strains: BT-474 (human breast tumor cell strains);
2. SRB: available from Sigmaaldrich, goods number: S9012, lot number: 047K3751. SRB was reserved at the room temperature. 0.4% (w/v) of working solution was formulated with 1% of glacial acetic acid. The solution was reserved at the temperature of 4° C.; anti-tumor compounds; DMSO.
Culture medium (90% EMEM+10% FBS+0.1 mM NEAA, reserved at 4° C.);
as §1
2. PBS was sucked out, and […] of 0.25% pancreatin was added to infiltrate the cells for 30 s;
3. The pancreatin was sucked out. The culture plate was pleaced in an incubator. Digestion was carried out for about 5 min at 37° C.;
4. 3 mL of complete culture solution was added to the culture plate to stop the digestion. The cells were carefully scoured with micropipette (1 ml) to give a uniform single cell suspension;
5. Cell suspension was counted. The suspension was diluted to 1×10^5/ml. The resulting suspension was developed uniformly on a plate. The plate was incubated under 5% CO2 at 37° C. overnight. In day 2, 80 μL of complete culture medium was added in each well and then 20 μL of culture solution comprising a compound was added. The mixture was incubated for 70 h under 5% CO2 at 37° C.
as §2, §3, §4, §5, §6, §7, §8, §9, §18, §19

Fadu cells = test: Fadu Cell Growth Inhibition Test (MTT Assay); assay type: cell-based; details: Homo sapiens, 72 h incubation
Experimental: Fadu Cell Growth Inhibition Test (MTT Assay)
Cell strains: Fudu (human head and neck cancer cell strains);
Culture medium: 90% EMEM+10% FBS;
as §10, §11, §20
4. The pancreatin was sucked out. The culture plate was placed in an incubator. Digestion was carried out for about 5 min at 37° C.;
5. 4.5 ml of complete culture solution was added to the culture plate to stop the digestion. The cells were carefully scoured with micropipette (1 ml) to give a uniform cell suspension. The suspension was implanted into a 96-well cell culture plate by 6000 cells/100 μl per well. The culture plate was incubated overnight under 5% CO2 at 37° C. In day 2, 100 μl of culture solution comprising a compound was added in each well, and further incubated for 72 h under 5% CO2 at 37° C.
as §13, §21, §15, §22, §17, §18, §19

A431 cells = test: A431 Cell Growth Inhibition Test (MTT Assay); assay type: cell-based, human; details: Homo sapiens, A-431, 68 h incubation
Experimental: A431 Cell Growth Inhibition Test (MTT Assay)
1. Cell strains: A431 (human epithelial […] cell strains);
Culture medium: 45% DMEM, 45% F12+10% FBS;
as §10, §11
3. PBS was sucked out, and 2 ml of 0.25% pancreatin was added to infiltrate the cells for 1 min;
4. The pancreatin was sucked out, and the culture plate was placed in an incubator. Digestion was carried out for about 15 min at 37° C.;
5. 4 ml of complete culture solution was added in the culture plate to stop the digestion. The cells were carefully scoured with micropipette (1 ml) to give a uniform cell suspension. The suspension was implanted into a 96-well cell culture plate by 2500 cells/100 μl per well. The culture plate was incubated overnight under 5% CO2 at 37° C. In day 2, 100 μl of culture solution comprising the compound was added in each well, and further incubated for 68 h under 5% CO2 at 37° C.
as §13, §14, §15
9. 100 μl of DMSO was added into each well and vibrated to dissolve;
as §17, §18
IC50: concentration of a compound where inhibition ratio was 50%. IC50 values were fitted with Origin7.5.

CN(C)C/C=C/C(=O)Nc1cc2c(Nc3ccc(OCc4ccc(C(C)(C)C)cc4)c(Cl)c3)c(C#N)cnc2cc1OC1CCOC1 (stereo not shown) [Example 14, (E)-N-(4-(4-(4-TERT-BUTYLBENZYLOXY)-3-CHLOROPHENYLAMINO)-3-CYANO-7-(TETRAHYDROFURAN-3-YL-OXY)QUINOLIN-6-YL)-4-(DIMETHYLAMINO)-BUT-2-ENAMIDE]
GI50 (Sk-Br-3 cells): 924 nM
IC50 (LoVo cells): 1300 nM
IC50 (AsPC-1 cells): 1400 nM
IC50 (NCI-H460 cells): 940 nM
IC50 (A549 cells): 1500 nM

N#Cc1cnc2cc(O[C@H]3CCOC3)c(NC(=O)/C=C/CNCCCCCCO)cc2c1Nc1ccc(OCc2ccccn2)c(Cl)c1 [Example 154, (S,E)-N-(4-(3-CHLORO-4-(PYRIDIN-2-YL-METHOXY)PHENYLAMINO)-3-CYANO-7-(TETRAHYDROFURAN-3-YL-OXY)QUINOLIN-6-YL)-4-(6-HYDROXYHEXYLAMINO)-BUT-2-ENAMIDE]
GI50 (Sk-Br-3 cells): 38 nM
IC50 (NCI-N87 cells): 41 nM
IC50 (BT-474 cells): 12 nM
IC50 (Fadu cells): 324 nM
IC50 (A431 cells): 162 nM

CN(C)C/C=C/C(=O)Nc1cc2c(Nc3ccc(F)c(Cl)c3)c(C#N)cnc2cc1Oc1cccnc1 [Example 174, (E)-N-(4-(3-CHLORO-4-FLUOROPHENYLAMINO)-3-CYANO-7-(PYRIDIN-3-YL-OXY)QUINOLIN-6-YL)4-(DIMETHYLAMINO)-BUT-2-ENAMIDE]
IC50 (NCI-H460 cells): 3000 nM
IC50 (A549 cells): 3700 nM
IC50 (A431 cells): 950 nM
